≈ marks a conversion by molar mass, not a printed value.
Experiments:
[1] = system: E. coli D-1; test: Antibacterial activity (minimum effective inhibitory concentration); type: cell-based; details: Escherichia coli, D1
From the text: (§1) Antibacterial activities (minimum effective inhibitory concentrations) of compounds of formula I (taken from the following Examples) are shown in the following Table.

[2] = system: K. pneumoniae ATCC 10031; test: as above; type: cell-based; details: Klebsiella pneumoniae, ATCC10031
From the text: as §1

[3] = system: P. aeruginosa NCTC 10490; test: as above; type: cell-based; details: Pseudomonas aeruginosa, NCTC10490
From the text: as §1

[4] = system: S. aureus FDA 209P JC-1; test: as above; type: cell-based; details: Staphylococcus aureus, FDA209P
From the text: as §1

[5] = system: S. epidermidis IID 866; test: as above; type: cell-based; details: Staphylococcus epidermidis, IID866
From the text: as §1

[6] = Acute toxicity, intravenous injection into mice; type: in vivo
Method: Some of the compounds of this invention have low toxicity (acute toxicity).
The compound of Example 4 has, in particular, low toxicity.
200 mg of /the compound of Example 4 was dissolved in 2 ml of distilled water and after adjusting the pH of the solution to about 7 by addition of sodium hydrogen carbonate to form an injection solution, the solution was intravenously injected into mice (body weights: 26-28 g; ICR ? 5W) over a period of 4 minutes at a rate of 1 ml/kg. There were no lethal cases for administration doses below 4.0 g/kg.

SMILES | MIC [1] [µg/mL] | MIC [2] [µg/mL] | MIC [3] [µg/mL] | MIC [4] [µg/mL] | MIC [5] [µg/mL] | administration doses with no lethal cases ([6]; ICR mice (26-28 g), intravenous injection over 4 minutes, aqueous solution at about pH 7) | toxicity (acute toxicity) ([6]; statement in words)
CO/N=C(\C(=O)N[C@@H]1C(=O)N2C(C(=O)O)=C(CSc3nnnn3C)CS[C@H]12)c1csc(N)n1 [Cefmeno-xime] | 0.025 (≈ 0.0489 µM) | ≤ 0.006 | 0.2 (≈ 0.391 µM) | 1.56 (≈ 3.05 µM) | 0.39 (≈ 0.762 µM) | – | –
CO/N=C(\C(=O)N[C@@H]1C(=O)N2C(C(=O)[O-])=C(CSc3cc[n+](CC(C)=O)cc3)CS[C@H]12)c1csc(N)n1 [Example 4, (Z)-7-[α-(2-amino-4-thiazolyl)-α-(methoxyimino)acetamido]-3-[1-acetonyl-4-pyridinio)thiomethyl-Δ^3-cephem-4-carboxylate] | ≤ 0.006 | ≤ 0.006 | 0.2 (≈ 0.355 µM) | 0.2 (≈ 0.355 µM) | 0.1 (≈ 0.178 µM) | below 4.0 g/kg | low toxicity
C#CC[n+]1ccc(SCC2=C(C(=O)[O-])N3C(=O)[C@@H](NC(=O)/C(=N\OC)c4csc(N)n4)[C@H]3SC2)cc1 [Example 9, (Z)-7-[a-(2-amino-4-thiazolyl)-a-(methoxyimino)acetamido]-3-[1-propargyl-4-pyridinio]thiomethyl-Δ^3-cephem-4-carboxylate] | ≤ 0.006 | ≤ 0.006 | 0.39 (≈ 0.716 µM) | 0.1 (≈ 0.184 µM) | 0.1 (≈ 0.184 µM) | – | –
CO/N=C(\C(=O)N[C@@H]1C(=O)N2C(C(=O)[O-])=C(CSc3cc[n+](CC#N)cc3)CS[C@H]12)c1csc(N)n1 [Example 1, (Z)-7-[α-(2-amino-4-thiazolyl)-α-(methoxyimino)acetamido]-3-(1-cyanomethyl-4-pyridinio)thiomethyl-Δ^3-cephem-4-carboxylate] | 0.013 (≈ 0.0238 µM) | 0.013 (≈ 0.0238 µM) | 0.39 (≈ 0.715 µM) | 0.2 (≈ 0.367 µM) | 0.1 (≈ 0.183 µM) | – | –

Second part, led by results:

MIC [1] [µg/mL] | MIC [2] [µg/mL] | MIC [3] [µg/mL] | MIC [4] [µg/mL] | MIC [5] [µg/mL] | SMILES | administration doses with no lethal cases ([6]; ICR mice (26-28 g), intravenous injection over 4 minutes, aqueous solution at about pH 7) | toxicity (acute toxicity) ([6]; statement in words)
0.025 (≈ 0.042 µM) | 0.013 (≈ 0.0219 µM) | 0.39 (≈ 0.656 µM) | 0.2 (≈ 0.336 µM) | 0.1 (≈ 0.168 µM) | CC(=O)C[n+]1ccc(SCC2=C(C(=O)[O-])N3C(=O)C(NC(=O)C(=NOCCF)c4csc(N)n4)C3SC2)cc1 (stereo not drawn) [Example 12, (Z)-7-[α-(2-amino-4-thiazolyl)-α-(2-fluoroethoxyimino)acetamidoa-3-[1-acetonyl-4-pyridinio]thiomethyl-Δ^3-cephem-4-carboxylate] | – | –
≤ 0.006 | ≤ 0.006 | 0.39 (≈ 0.66 µM) | 0.2 (≈ 0.339 µM) | 0.1 (≈ 0.169 µM) | CCCC(=O)C[n+]1ccc(SCC2=C(C(=O)[O-])N3C(=O)C(NC(=O)C(=NOC)c4csc(N)n4)C3SC2)cc1 (stereo not drawn) [Example 20, (Z)-7-[α-(2-Amino-4-thiazolyl)-α-(methoxyimino)acetamido]-3-[(1-(2-oxopentyl)-4-pyridinio]thiomethyl-Δ^3-cephem-4-carboxylate] | – | –
0.013 (≈ 0.022 µM) | 0.013 (≈ 0.022 µM) | 0.78 (≈ 1.32 µM) | 0.2 (≈ 0.338 µM) | 0.2 (≈ 0.338 µM) | CON=C(C)C[n+]1ccc(SCC2=C(C(=O)[O-])N3C(=O)C(NC(=O)C(=NOC)c4csc(N)n4)C3SC2)cc1 (stereo not drawn) [Example 17, (Z)-7-[α-(2-amino-4-thiazolyl)-α-(methoxyimino)acetamido]-3-(1-(2-methoxyimino-propyl)-4-pyridinio)thiomethyl-Δ^3-cephem-4-carboxylate] | – | –
0.013 (≈ 0.0222 µM) | 0.013 (≈ 0.0222 µM) | 0.39 (≈ 0.665 µM) | 0.2 (≈ 0.341 µM) | 0.1 (≈ 0.17 µM) | CO/N=C(\C(=O)N[C@@H]1C(=O)N2C(C(=O)[O-])=C(CSc3cc[n+](Cc4c[nH]cn4)cc3)CS[C@H]12)c1csc(N)n1 [Example 15, (Z)-7-[α-(2-amino-4-thiazolyl)-α-(methoxyimino)acetamido]-3-(1-(4-imidazolyl)methyl-4-pyridinio)thiomethyl-Δ^3-cephem-4-carboxylate] | – | –

Source: patent EP0190900A2, “Cephalosporin compounds, their production, and pharmaceutical compositions containing them” (YAMANOUCHI PHARMACEUTICAL CO. LTD., priority 1985, dated 1986)
